These results are taken from patent publication US9605027B2, “Polypeptides that bound to IL-23 receptor and inhibit binding of IL-23 and cell signaling thereof” (Medical Diagnostic Laboratories, LLC, priority 2011, dated 2017).

Each structure is given as a SMILES string. Peptide text beside a SMILES is read from it.

Assay [1] has as its system IL-23 induced IL-17F in rat splenocytes. The assay can be described thus: IL-17F mRNA expression induced by IL-23 in rat splenocytes. It counts as cell-based. Conditions: IL-23 200 ng/ml, qRT-PCR; read-out: IC50, inhibition of IL-17F mRNA expression. Here is the method: Sprague Dawley (SD) rat spleen was isolated and placed in 3 ml of media (RPMI 1640 with 10% FBS) in a small petri dish (35×10 mm). The rat spleen was placed on a sterile wire mesh screen using sterile forceps. The rat spleen was pushed through the screen with the plunger of a 10 ml syringe into the petri dish. Then, the suspension was mixed by gently pipetting up and down. The cells were spun down at 1,000 rpm for 10 minutes. Red blood cells were lysed by adding a Red Blood Cell lysis buffer. The cell suspension was incubated at room temperature for 5 minutes. The cells were spun down at 1,000 rpm for 10 minutes. The pelleted splenocytes were washed twice with PBS. After washing, the isolated splenocytes were re-suspended in 10 ml of culture media (RPMI 1640 with 10% FBS).
Rat splenocytes (2.5×10^6 cells/ml) were prepared and cultured in RPMI-1640 with 10% FBS for 16 hours at 37° C. Cyclic peptide no. […] The stimulation was carried out for an additional 4 hours. mRNA expression of IL-17F was measured by qRT-PCR (rat IL-17F forward primer (GGC-TCC-TGT-GAA-ACA-ACC-AT)(SEQ ID NO: 180) and rat IL-17F reverse primer (ACA-GAA-ATG-CCC-TGG-TTT-TG) (SEQ ID NO: 181). The PCR was performed under the following conditions: 95° C. for 5 minutes, 95° C. for 30 seconds, 60° C. for 30 seconds 72° C. for 30 seconds, times 40 cycles. […]

Assay [2] has as its target T1, mouse IL-23R (Mus musculus, UniProt Q8K4B4).
T1 sequence (Q8K4B4 24-644): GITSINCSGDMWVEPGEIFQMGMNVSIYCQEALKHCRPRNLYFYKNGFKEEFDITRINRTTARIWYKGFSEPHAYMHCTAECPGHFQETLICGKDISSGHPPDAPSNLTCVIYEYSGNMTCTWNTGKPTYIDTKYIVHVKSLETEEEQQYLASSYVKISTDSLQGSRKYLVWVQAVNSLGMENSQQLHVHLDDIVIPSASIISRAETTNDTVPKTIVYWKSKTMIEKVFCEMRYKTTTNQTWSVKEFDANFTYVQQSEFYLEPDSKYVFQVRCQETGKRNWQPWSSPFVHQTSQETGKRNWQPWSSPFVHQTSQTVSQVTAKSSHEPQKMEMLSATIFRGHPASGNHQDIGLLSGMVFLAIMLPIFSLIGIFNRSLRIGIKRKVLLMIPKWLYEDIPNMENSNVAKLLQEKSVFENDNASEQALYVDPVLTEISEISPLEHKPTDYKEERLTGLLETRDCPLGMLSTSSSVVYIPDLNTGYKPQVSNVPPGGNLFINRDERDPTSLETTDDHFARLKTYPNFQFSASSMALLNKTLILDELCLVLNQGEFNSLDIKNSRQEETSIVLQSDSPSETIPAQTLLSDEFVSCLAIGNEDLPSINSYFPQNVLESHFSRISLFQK
The assay can be described thus: Competitive mouse ELISA, mouse IL-23 binding to mouse IL-23R. Conditions: mouse IL-23 / mouse IL-23R-Fc; read-out: IC50, Competitive ELISA in mouse system. An excerpt: In this study, we tested if the cyclic polypeptide no. 23.15, cyclic polypeptide no. 23.19 and the isolated polypeptide 23.15-Fc fusion protein could inhibit binding of mouse IL-23 to mouse IL-23R. Mouse IL-23 (p19 Gene Accession #: NM_031252; p40 Gene Accession #: NM_008352), the sequence of which is incorporated herein by reference. Mouse IL-23R (Gene Accession #: NM_144548), the sequence of which is incorporated herein by reference. To do so, we performed the Competitive ELISA.
FIG. 46 is a schematic depiction of the Competitive ELISA in mouse. Recombinant mouse IL-23R-Fc (2 μg/ml) was coated onto microtiter plates as a capture reagent. Mouse IL-23 and polypeptide or isolated peptide-Fc fusion protein were added to compete for binding to the immobilized mouse IL-23R-Fc. Mouse IL-23 that bound to mouse IL-23R-Fc was detected using biotinylated anti-p40 antibody (1:250). The bound anti-p40 antibody was detected using streptavidin-horseradish peroxidase (HRP) (1:500) and 100 μl/well of a tetramethylbenzidine (TMB) substrate was added to measure peroxidase activity. The color was measured at optical density (OD) 450nm. The color intensity was directly proportional to the amount of the bound mouse IL-23 protein.
The isolated polypeptide no. 23.15-Fc fusion protein, cyclic polypeptide no. 23.19 and polypeptide no. […] The IC50 values were calculated.
(An ELISA detects its analyte on a solid surface through an enzyme-linked reagent.)

As to `CSCC[C@@H]1NC(=O)[C@H](CCCCN)NC(=O)[C@H](C)NC(=O)[C@H](C)NC(=O)[C@H](CS)NC(=O)[C@H](CC(N)=O)NC(=O)[C@H](CCCCN)NC(=O)[C@H](CC(C)C)NC(=O)[C@H](Cc2c[nH]c3ccccc23)NC(=O)[C@H](Cc2ccc(O)cc2)NC(=O)[C@H](CC(=O)O)NC(=O)[C@H](C(C)C)NC(=O)[C@H](Cc2c[nH]c3ccccc23)NC(=O)[C@H]([C@@H](C)O)NC1=O` [2HT AA] (cyclo(AAKMTWVDYWLKNC)), in assay [1], the 50% inhibitory concentration (IC50) (in general, the concentration that inhibits the measured activity by half) turned out to be 0.27 µM.
`CSCC[C@@H]1NC(=O)[C@H](C)NC(=O)[C@@H](N)CSSC[C@@H](C(=O)O)NC(=O)[C@H](CCCNC(=N)N)NC(=O)CNC(=O)[C@H](Cc2ccc(O)cc2)NC(=O)[C@H](CC(C)C)NC(=O)[C@H](Cc2c[nH]c3ccccc23)NC(=O)[C@H](Cc2ccc(O)cc2)NC(=O)[C@H](CC(=O)O)NC(=O)[C@H](CCC(N)=O)NC(=O)[C@H](Cc2c[nH]c3ccccc23)NC(=O)[C@H]([C@@H](C)O)NC1=O` [23.19]: in assay [2], the IC50 came out at 12.5 µM.
